Marks after values point to notes of the source that are not given here.
Columns and labels:
[1] = system: MCAO rats; test: Middle cerebral artery occlusion (MCAO) cerebral ischemia lesions in rats; type: in vivo, rat; settings: for Infarcted Volume (X ± SEM mm^3): vehicle D.W. 214.75 ± 26.37
From the text: The same effects of preventing the ischemia-reperfusion damages with aporphine and oxoaporphine compounds also found in the other organs, such as brain. After Compound 16 or Compound 21, which is a compound of Formula B (where R1, R2, R5, R6 are OMe, R3, R4, R7 are H) was administrated to male Sprague Dawley rats, the effects of test compounds on the artery occlusive cerebral ischemia in the rats were monitored. First, permanent brain ischemia was induced by middle cerebral artery occlusion (MCAO) in the rats. At 0, 6, 24, 48, and 54 hours after the formation of middle cerebral artery occlusion (MCAO), Group I (i.e., the control group) animals were given the solvent (100% DMSO) (1 ml/kg, i.p.); Group II (i.e., the control group) animals were given the distilled water (D.W.) (1 ml/kg, i.p.);Group III animals (NCM-121) were given Compound 16 (1.5 mg/kg, i.p.); Group IV animals (NCM-124) were given Compound 21 (1.7 mg/kg, i.p); Group V animals were given MK-801 (0.3 mg/kg, i.p.), an antagonist of the N-methyl-D-aspartic acid (NMDA) receptor. There were ten rats in each group. Four days after the formation of MCAO, all the rats were sacrificed. Brain sections were made and stained with 2% cresol purple. The areas and volumes of cerebral ischemia lesions in each section were recorded.

[2] = system: Langendorff perfused rat hearts; test: Coronary flow in Langendorff perfused rat hearts; settings: FIG. 3
Description: Adult male Wistar rats weighing 275-325 g, were intraperitoneally anesthetized with sodium pentobarbital (50 mg·kg^−1) and given heparin (300 Ukg·kg^−1) by the same route. Hearts were rapidly excised and immersed in 37° C. perfusion medium. The aorta was cannulated and retrograde-perfused at 80 mmHg with Tyrode's solution containing 120 mM NaCl, 25 mM NaHCO3, 3 mM KCl, 1.2 mM NaH2PO4, 2.5 mM CaCl2, 1.2 mM MgCl2, and […] 5.5 mM glucose. The perfusate was equilibrated with 95% O2, 5% CO2 at 37° C. Perfusion pressure was monitored using a MLT844/D pressure transducer (Capto, Horten, Norway) connected to a PowerLab (ADInstruments, Castle Hill, Australia). The coronary effluent was collected for the measurement of coronary flow.

[3] = Serum glucose levels in NIDDM animals; type: in vivo, mouse; settings: NIDDM rats, n=5, vehicle 0
[4] = system: eNOS; test: Western blot analysis for eNOS protein in ischemia-reperfusion rat heart; type: in vivo; settings: ischemia 25 min, reperfusion 2 h, 0.5 mg/kg at 5 min prior to reperfusion, P<0.05 vs vehicle
Description: To elucidate the effects of the test compounds on the infarct size caused by regional myocardial ischemia and reperfusion, all animals were randomized into 8 study groups. The first group (Sham) comprised of animals not subjected to regional myocardial ischemia (25 min) followed by reperfusion (2 h) and treated with vehicle (1 ml/kg) 5 minutes prior to the onset of reperfusion. The second group of animals were subjected to regional myocardial ischemia (25 min) followed by reperfusion (2 h) and were treated with vehicle (saline, 1 ml/kg). […]
Hearts were pulverized at −80° C. using liquid nitrogen and a stainless steel pestle and mortar. […] Total protein concentrations were determined using the Bradford method (Bio-Rad, UK). […] Signals were detected using the enhanced chemiluminescence (ECL™) detection system (Cell Signaling Technology, U.S.A.) and autoradiographic film. For quantification of protein expression all blots were reprobed for muscle α-actin expression using 1/2000 dilution of a mouse anti-human actin (muscle antibody (Serotec), followed by incubation with a goat anti-mouse HRP linked secondary antibody ( 1/2000 dilution) (DakoCytomation, Denmark). Densitometry analysis was performed on scanned images (Hewlett Packard Scanjet) and analyzed using Scion Image (Scion Corp, National Institutes of Health, Bethesda, Md.).

[5] = system: regional myocardial ischemia and reperfusion (LAD occlusion); test: Infarct size in a rat model of regional myocardial ischemia and reperfusion; type: in vivo; settings: rat, LAD occlusion 25 min, reperfusion 2 h; 0.5 mg/kg i.v.; vehicle 58±2%; P<0.05 vs vehicle
Description: Seventy two male Wistar rats (215-300 g, Charles River, Margate, U.K.) were anaesthetized with thiopentone sodium (Intraval®, 120 mg/kg i.p.; Rhone-Merrieux, Essex, U.K.). The rats were tracheotomised and ventilated with a Harvard ventilator (70 strokes/min, tidal volume: 8-10 ml/kg, inspiratory oxygen concentration: 30%). Body temperature was maintained at 38±1° C. The right carotid artery was cannulated and connected to a pressure transducer (MLT 844, AD Instruments Ltd, Hastings, UK) to monitor mean arterial blood pressure and heart rate, which were continuously recorded on a data acquisition system (Powerlab® Version 4.0.4, AD Instruments, Hastings, UK) installed on a Dell Dimension 4100 personal computer, throughout the experiment. The right jugular vein was cannulated for the administration of test compound and Evans Blue dye (at the end of the experiment). A parasternal thoracotomy was performed, the heart was suspended in a temporary pericardial cradle and a snare occluder was placed around the left anterior descending coronary artery (LAD). After completion of the surgical procedure the animals were allowed to stabilize for 30 min before LAD ligation. The coronary artery was occluded at time 0 by tightening of the occluder. After 25 min of acute myocardial ischemia, the occluder was released to allow reperfusion for 2 h.
The test compounds were administered as a slow intravenous injection (i.v.) 5 min prior to the onset of reperfusion of the ischemic heart. Following the 2 h reperfusion period, the coronary artery was re-occluded and Evans Blue dye (1 ml of 2% w/v) was injected into the left ventricle, via the right jugular vein cannula, to distinguish between perfused and non-perfused (AAR) sections of the heart. The Evans Blue solution stains the perfused myocardium, while the occluded vascular bed remains uncolored. The animals were sacrificed with an overdose of anesthetic and the heart excised. The heart was sectioned into slices of 3-4 mm thick, the right ventricular wall was removed, and the AAR (pink) was separated from the non-ischemic (blue) area. […]

[6] = system: focal cerebral ischemia-reperfusion rats; test: Striatal blood flow in focal cerebral ischemia-reperfusion rats (laser Doppler flowmetry); type: in vivo, rat; settings: 40-min common carotid occlusion plus endothelin-1, 24-hrs reperfusion, FIG. 4

Compound `COc1ccc2c(c1)-c1c(OC)ccc3c1C(C2=O)N(C)CC3` (stereo not drawn) [Compound 7, 1,10-dimethoxy-7-oxoaporphine] has a melting point of 162 to 164 °C.
With `COc1cc2c(cc1OC(C)C)C(=O)C1c3c(cc(OC(C)C)c(OC)c3-2)CCN1C` (stereo not drawn) [Compound 3, 2,9-Diisopropyloxy-1,10-dimethoxy-7-oxoaporphine] the melting point was 82 to 84 °C.
For `C[C@]12N[C@H](Cc3ccccc31)c1ccccc12` [MK-801, reference compound], the “Infarcted Volume (X ± SEM mm^3)” value ([1]; IP 0.3 mg/kg × 6, N=10, four days after MCAO) was 47.34 ± 13.79* mm^3 and the “% Decrease in total volume of ischemic lesions” value ([1]; IP 0.3 mg/kg × 6, vs Group II vehicle (D.W.)) was 77.96%.
In the case of `COc1cc2c(cc1OC)-c1c(OC)c(OC)cc3ccnc(c13)C2=O` [Compound 21], the “Infarcted Volume (X ± SEM mm^3)” value ([1]; IP 1.7 mg/kg × 6, N=10, four days after MCAO) is reported as 133.75 ± 19.57* mm^3, the “% Decrease in total volume of ischemic lesions” value ([1]; IP 1.7 mg/kg × 6, vs Group II vehicle (D.W.)) is reported as 37.72% and the “effects in reducing the areas and volumes of cerebral ischemia lesions as compared with MK-801” value ([1]; comparison in words) is reported as “more significant effects”. The coronary blood flow [2] was “increasing coronary blood flow”.
For `CN(C)C(=N)N=C(N)N` [Metformin, reference compound], the “serum glucose Percentage of change (%)” value ([3]; 100 mg/kg × 3 days, po) was 39 ± 1.6%.
Compound `COc1cc2c(cc1O)C(=O)C1c3c(cc(OC(C)C)c(OC)c3-2)CCN1C` (stereo not drawn) [Compound 4, 9-hydroxy-2-isopropyloxy-1,10-dimethoxy-7-oxoaporphine] has a melting point of 240 to 242 °C.
With `COc1cc2c(cc1OC)-c1c(O)c(OC)cc3c1C(C2)N(C)CC3` (stereo not drawn) [Compound 20] the “reduction in eNOS protein expression caused by ischemia and reperfusion” value [4] was “significantly reduced”, the infarct size [5] was 34±4 % of the area at risk and the “serum glucose Percentage of change (%)” value ([3]; 3 mg/kg × 3 days, iv, 90 minutes after last dose vs pre-treatment) was 12 ± 3.5%. The coronary blood flow [2] was “increasing coronary blood flow” and the “blood flow in brain (striatal blood flow)” value [6] was “increase in blood flow in brain”.

Reference: patent US7294715B2, “Aporphine and oxoaporphine compounds and pharmaceutical use thereof” (Lotus Pharmaceutical Co., Ltd., priority 2003, dated 2007)
